Test results: PubChem BioAssay (NCI)
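Tested at 5 concentrations; 48 h exposure; 96-well plates; endpoints linearly interpolated, else capped at highest concentration. At the GI50, growth is halved. Definition used: TGI = concentration required for complete inhibition of growth.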

Tested on: MDA-MB-468 breast
Assay: inhibition of tumour cell growth, NCI panel, 48 h

Row | SMILES | GI50 [nM] | TGI [nM]
1 | N=c1ccc2nc3ccc(N)cc3sc-2c1 | 3020 | 8120
2 | Cc1cc(N/N=C/c2nc(-c3ccc(Cl)cc3)oc2C)c2cc(Br)ccc2n1 | 1600 | 3630
3 | CC(C)(C)[Si](C)(C)OC1[C@@H](CNC(N)=O)O[C@@H](n2cnc3c(NC(=O)Nc4ccccc4)ncnc32)[C@H]1O[Si](C)(C)C(C)(C)C (stereo partly specified) | 2150 | 8230
4 | COc1ccc2[nH]cc(-c3cc(N)n4nc(-c5c[nH]c6ccc(OC)cc56)cc4n3)c2c1 | 1730 | 3750
5 | CCOC(=O)c1sc(-c2ccc(OS(=O)(=O)C[C@]34CCC(CC3=O)C4(C)C)c(C=O)c2)nc1C | 966 | 3300
6 | Nc1nc(N)c2cc(Sc3ccc4ccccc4c3)ccc2n1 | 1100 | 2390
7 | Cc1cc(NCc2cc(Nc3ccnc4cc(Cl)ccc34)ccc2F)nc(N2CCOCC2)n1 | 1940 | 5640
8 | CCCC1(CN2c3ccccc3Sc3ccc(Cl)cc32)CCN(CC)C1 (stereo unspecified) | 1600 | 3140
9 | COc1cc(C2=NN(C(C)=O)C(c3cc(OC)c(OC)c(OC)c3)C2)ccc1O (stereo unspecified) | 265 | 3610
10 | COc1ccc(Nc2nc(Nc3cc(C)[nH]n3)c3cc(OC)c(OC)cc3n2)cc1 | 1010 | 2530
11 | Clc1ccc(/C=C/c2ccc3ccccc3n2)cc1 | 419 | 2950
12 | Cc1cc(CCl)c(C)cc1CCl | 379 | 1600
13 | COc1ccc2c(c1)C(=O)/C(=C/c1cccc(OCC(=O)Nc3nc(C)c(C)s3)c1)O2 |  | 17.6
14 | c1ccc(-c2nc3n(c2-c2ccc4c(c2)OCO4)CCC3)nc1 | 5810 | 17000
15 | COc1ccc(C2=NC(=O)NC2c2ccc(OC)cc2)cc1 (stereo unspecified) | 4710 | 43700
16 | COc1cc(OCc2cccc(-c3ccccc3)c2C)cc(OC)c1CN1CCCCC1C(=O)NCCOCCOCCN (stereo unspecified) | 1700 | 3430
17 | Cc1cn(-c2cccc(NC(=O)c3ccc(C)c(Nc4nccc(-c5cccnc5)n4)c3)c2)cn1 | 1610 | 3180
18 | CN(C)CCCOc1cccc(NC2=C(Cl)C(=O)C(Nc3cccc(OCCCN(C)C)c3)=C(Cl)C2=O)c1 | 212 | 458
19 | Cn1c(=O)n(C)c2cc(CNCCNc3ccnc4cc(Cl)ccc34)ccc21 | 14400 | 32400
20 | COc1cc(OC)c2sc(-c3ccc(-n4cncc4-c4ccc(OC)c(OC)c4)cc3)nc2c1 | 4150 | > 100000
21 | CCn1cc(/C=C2\Oc3cc(OCC#N)ccc3C2=O)c2cc(OC)ccc21 | 802 | 13700
22 | CCCN(CCC)c1ccc(C=O)c(Cl)c1 | 53.8 | 243
23 | C=C1C(=O)O[C@H]2[C@H]1CC/C(COC(=O)N[C@H]1C[C@H](O[C@H]3C[C@](O)(C(=O)CO)Cc4c(O)c5c(c(O)c43)C(=O)c3c(OC)cccc3C5=O)O[C@@H](C)[C@H]1O)=C\CC[C@@]1(C)O[C@@H]21 | 793 | 2040

Row | SMILES | GI50 [nM] | TGI [nM]
24 | O=C(CC1(O)C(=O)Nc2ccc(F)cc21)c1ccc(C(=O)NCC2CCC3(CC2)OOC2(CCCCC2)OO3)cc1 (stereo unspecified) | 4540 | 21600
25 | CCOC(=O)c1ccc(NC(=O)NC2=NCCS2)cc1 | 623 | > 26400
26 | CC(=O)c1ccc2c(c1)N(CCCN1CCN(CCO)CC1)c1ccccc1S2 | 1670 | 3210
27 | Cc1ccc2sc3c(c2c1)OC(N)=C(C#N)C3c1cccc(F)c1 (stereo unspecified) | 225 | 724
28 | COc1ccc(-c2nc(-c3nc4cc(Cl)c(F)cc4[nH]3)c3ccccn23)cc1 | 2930 | 30300
29 | FC(F)(F)c1ccc(-c2nn3ncccc3c2-c2ccnc(Nc3ccc4c(c3)OCCO4)n2)cc1 | 4520 | 17600
30 | Cc1ccc(S(=O)(=O)c2nc(-c3ccccc3)oc2S(C)(=O)=O)cc1 | 1770 | 3840
31 | COc1cccc(CNc2ncnc3c2ncn3C2OC(CO)C(O)C2O)c1O (stereo unspecified) | 137 | 2090
32 | Cc1ccc2c(n1)C(=O)C(Cl)=C(Nc1ccc(C(=O)OC(C)(C)C)cc1)C2=O | 11100 | 26700
33 | Nc1c(C(=O)c2cccc(C#CCN3CCCCC3)c2)cnn1-c1ccc(F)cc1 | 7720 | > 25000
34 | C=C1C(=O)O[C@H]2[C@H]1CC/C(COC(=O)NCc1ccc(Cn3c(=O)sn(CCCCC)c3=O)cc1)=C\CC[C@@]1(C)O[C@@H]21 | 1190 | 2640
35 | C/C(=C(/c1ccccc1)c1ccc(OCC(O)CNCCN2CCOCC2)cc1)c1ccccc1 (stereo unspecified) | 1410 | 2850
36 | CN(Cc1ccc(F)cc1)c1ccc(CO)c(Cl)c1 | 58 | 207
37 | COc1cc(F)ccc1-c1cc(Nc2cc(CS(C)(=N)=O)ccn2)ncc1F (stereo unspecified) | 91.5 | 445
38 | COc1cc([C@@H]2c3cc4c(cc3[C@H](OC(C)=O)[C@H]3COC(=O)[C@@H]23)OCO4)cc(OC)c1OC | 293 | 5450
39 | COc1ccc(C(=O)c2sc3nc(-c4ccccc4OC)ccc3c2N)cc1OC | 6280 | > 100000
40 | CCCCCCCCCc1ccc(OCCOCCOCCOCCOCCOCCOCCOCCOCCO)cc1 | 66 | 1180
41 | CCN1[C@@H](C(=O)NC23CCC(C(=O)O)(CC2)CC3)[C@H](c2cccc(Cl)c2F)[C@]2(C(=O)Nc3cc(Cl)ccc32)C12CCCCC2 | 2180 | 6680
42 | C=C1C(=O)O[C@H]2[C@H]1CC/C(Cn1cc(-c3ccc(N)cc3)nn1)=C\CC[C@@]1(C)O[C@@H]21 | 1770 | 4210
43 | COc1ccc(-c2cnnn2-c2nonc2-n2cccc2)cc1OC | 2000 | 7900
44 | CCOP(=O)(OCC)OC[C@]12CCC(C)(C)C=C1[C@H]1CC[C@@H]3[C@@]4(C)CC[C@H](OP(=O)(OCC)OCC)C(C)(C)[C@@H]4CC[C@@]3(C)[C@]1(C)CC2 | 1300 | 2930
45 | CCSc1ccc([C@@H]2[C@@H](O)C(=O)N2c2cc(OC)c(OC)c(OC)c2)cc1 | < 10 | 57600
46 | O=C(Nc1cccc2[nH]c(C(F)(F)F)nc12)c1cc(Cl)ccc1Cl | 2520 | 7740
